Entries after “also recorded” stand apart in the source; their conditions may differ.

The values below come from paper PMC8595653, “Activation of specific bitter taste receptors by olive oil phenolics and secoiridoids” (Scientific Reports, 2021).

For one experiment, the target named is T1, TAS2R5 (Homo sapiens, UniProt Q9NYW4).
T1 construct: first 45 amino acids of rat somatostatin type 3 receptor (SSTR3) export tag (N); expressed in transfected cells; host or cells: HEK293E
The experiment can be described thus: Calcium mobilization functional assay, TAS2R5. It counts as cell-based. Conditions: 1 mM, versus empty pcDNA vector. An excerpt:
(§1) All constructs were confirmed by DNA sequencing.
(§2) Data from single dose experiments were collected as duplicates. […] Data represent mean ± SD.

Another experiment deals with 25 human TAS2Rs. The experiment can be described thus: Single dose scanning of phenolic compounds on the 25 bitter taste receptors (calcium mobilization, HEK293E). It counts as cell-based. Conditions: single dose 300 µM, 25 TAS2Rs, N = 2. On the procedure: as §1, §2
(§3) To characterize the bitterness of olive oil phenolic compounds, we performed calcium mobilization experiments. The 25 bitter taste receptors, G protein chimera (Gα16-gus44), and the GCaMP calcium sensor[68] were transiently expressed in HEK293E cells. Twelve olive oil phenolic compounds (Fig. 1) were tested for bitter taster receptor activation (Fig. 3). […] Ligstroside aglycon, and Oleuropein aglycon activated TAS2R1, TAS2R8 and TAS2R14 receptors. To validate the single dose scanning results, we performed concentration–response experiments for all the compounds toward receptors TAS2R1, TAS2R8, and TAS2R14 that produced the most significant responses (Fig. 4).
Figure 3 Phenolic compound bitter taste activity tests on hTAS2Rs. Relative fluorescence signals caused by phenolic compound activation of the receptors and the empty vector as a negative control. The concentration of the compounds used was [300 µM], except for Ligstroside aglycon and Oleuropein aglycon [200 µM], oleuropein that was [3 mM]. The asterisks indicate significant differences tested by one-way ANOVA (***p < 0.0001) (N = 2). Data represent mean ± SD.
(A change in cytosolic calcium serves as a functional read-out for many receptors and channels.)

Another experiment concerns TRPA1 receptor/channels. Details: method as in PMID 21248124. The note with it: cited from earlier work.
The target in another experiment is T2, TAS2R1 (Homo sapiens, UniProt Q9NYW7).
T2 construct: first 45 amino acids of rat somatostatin type 3 receptor (SSTR3) export tag (N); expressed in transfected cells; host or cells: HEK293E
T2 sequence (Q9NYW7 1-299): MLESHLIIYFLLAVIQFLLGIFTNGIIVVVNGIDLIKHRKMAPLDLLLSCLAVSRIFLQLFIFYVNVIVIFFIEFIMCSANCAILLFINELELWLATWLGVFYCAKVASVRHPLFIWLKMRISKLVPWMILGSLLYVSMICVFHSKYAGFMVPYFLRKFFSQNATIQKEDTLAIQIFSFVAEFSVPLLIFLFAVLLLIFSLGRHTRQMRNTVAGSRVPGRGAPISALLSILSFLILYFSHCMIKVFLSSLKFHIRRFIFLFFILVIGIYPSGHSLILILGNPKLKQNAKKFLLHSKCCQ
The experiment in a line: Calcium mobilization functional assay, TAS2R1 co-expressed with Gα16-gust44 and GCaMP in HEK293E cells. It counts as cell-based. Conditions: 1 mM, versus empty pcDNA vector. On the procedure: as §1, §2, §3

A further experiment addresses T3, TAS2R8 (Homo sapiens, UniProt Q9NYW2).
T3 construct: first 45 amino acids of rat somatostatin type 3 receptor (SSTR3) export tag (N); expressed in transfected cells; host or cells: HEK293E
T3 sequence (Q9NYW2 1-309): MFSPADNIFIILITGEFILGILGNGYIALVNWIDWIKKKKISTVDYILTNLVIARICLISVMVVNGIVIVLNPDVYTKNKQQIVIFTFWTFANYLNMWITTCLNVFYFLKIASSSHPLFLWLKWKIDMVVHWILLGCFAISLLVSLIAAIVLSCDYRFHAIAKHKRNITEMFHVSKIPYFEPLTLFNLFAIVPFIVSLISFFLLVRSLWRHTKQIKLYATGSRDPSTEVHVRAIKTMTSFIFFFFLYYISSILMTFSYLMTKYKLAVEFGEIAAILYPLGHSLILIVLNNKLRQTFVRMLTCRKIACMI
The experiment can be described thus: Calcium mobilization functional assay, TAS2R8 co-expressed with Gα16-gust44 and GCaMP in HEK293E cells. Conditions: 1 mM, versus empty pcDNA vector. The format is cell-based. On the procedure:
as §1, §2, §3

The target in another experiment is T4, TAS2R41 (Homo sapiens, UniProt P59536).
T4 construct: first 45 amino acids of rat somatostatin type 3 receptor (SSTR3) export tag (N); expressed in transfected cells; host or cells: HEK293E
The experiment in a line: Calcium mobilization functional assay, TAS2R41. It counts as cell-based. Conditions: 1 mM, versus empty pcDNA vector.
Source text: as §1, §2

For the next experiment, the target named is T5, TAS2R3 (Homo sapiens, UniProt Q9NYW6).
T5 construct: first 45 amino acids of rat somatostatin type 3 receptor (SSTR3) export tag (N); expressed in transfected cells; host or cells: HEK293E
The experiment can be described thus: Calcium mobilization functional assay, TAS2R3. It counts as cell-based. The note with it: 10 mM, versus empty pcDNA vector.
Source text: as §1, §2

The next experiment addresses T6, TAS2R7 (Homo sapiens, UniProt Q9NYW3).
T6 construct: first 45 amino acids of rat somatostatin type 3 receptor (SSTR3) export tag (N); expressed in transfected cells; host or cells: HEK293E
The experiment can be described thus: Calcium mobilization functional assay, TAS2R7. It counts as cell-based. Conditions: 10 mM, versus empty pcDNA vector.
Source text: as §1, §2

The next experiment addresses T7, TAS2R10 (Homo sapiens, UniProt Q9NYW0).
T7 construct: first 45 amino acids of rat somatostatin type 3 receptor (SSTR3) export tag (N); expressed in transfected cells; host or cells: HEK293E
The experiment in a line: Calcium mobilization functional assay, TAS2R10. The format is cell-based. Conditions: 30 µM, versus empty pcDNA vector.
Source text: as §1, §2

For another experiment, the target named is T8, TAS2R13 (Homo sapiens, UniProt Q9NYV9).
T8 construct: first 45 amino acids of rat somatostatin type 3 receptor (SSTR3) export tag (N); expressed in transfected cells; host or cells: HEK293E
The experiment can be described thus: Calcium mobilization functional assay, TAS2R13. The format is cell-based. The note with it: 10 mM, versus empty pcDNA vector.
Source text: as §1, §2

A further experiment has as its target T9, TAS2R9 (Homo sapiens, UniProt Q9NYW1).
T9 construct: first 45 amino acids of rat somatostatin type 3 receptor (SSTR3) export tag (N); expressed in transfected cells; host or cells: HEK293E
The experiment in a line: Calcium mobilization functional assay, TAS2R9. Conditions: 20 mM, versus empty pcDNA vector. The format is cell-based.
Source text: as §1, §2

A further experiment concerns the target T10, TAS2R16 (Homo sapiens, UniProt Q9NYV7).
T10 construct: first 45 amino acids of rat somatostatin type 3 receptor (SSTR3) export tag (N); expressed in transfected cells; host or cells: HEK293E
The experiment can be described thus: Calcium mobilization functional assay, TAS2R16. The format is cell-based. The note with it: 10 mM, versus empty pcDNA vector.
Source text: as §1, §2

T5 sequence (Q9NYW6 whole entry): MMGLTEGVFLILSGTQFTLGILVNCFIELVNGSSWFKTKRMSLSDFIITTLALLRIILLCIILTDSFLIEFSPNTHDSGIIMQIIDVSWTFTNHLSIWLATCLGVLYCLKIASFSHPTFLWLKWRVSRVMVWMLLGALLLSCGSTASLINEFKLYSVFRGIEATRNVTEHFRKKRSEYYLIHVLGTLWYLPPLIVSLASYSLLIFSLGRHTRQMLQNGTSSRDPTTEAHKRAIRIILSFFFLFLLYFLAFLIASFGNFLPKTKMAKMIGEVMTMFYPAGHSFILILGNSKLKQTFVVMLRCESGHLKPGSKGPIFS
T10 sequence (Q9NYV7 whole entry): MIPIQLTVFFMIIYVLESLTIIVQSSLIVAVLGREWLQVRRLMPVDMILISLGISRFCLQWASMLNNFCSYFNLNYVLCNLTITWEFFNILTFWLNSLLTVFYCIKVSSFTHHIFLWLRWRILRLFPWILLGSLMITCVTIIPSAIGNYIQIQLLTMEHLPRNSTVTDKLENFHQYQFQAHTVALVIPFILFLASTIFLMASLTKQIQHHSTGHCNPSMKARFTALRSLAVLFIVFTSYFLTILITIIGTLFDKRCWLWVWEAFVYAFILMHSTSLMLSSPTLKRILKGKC
T9 sequence (Q9NYW1 whole entry): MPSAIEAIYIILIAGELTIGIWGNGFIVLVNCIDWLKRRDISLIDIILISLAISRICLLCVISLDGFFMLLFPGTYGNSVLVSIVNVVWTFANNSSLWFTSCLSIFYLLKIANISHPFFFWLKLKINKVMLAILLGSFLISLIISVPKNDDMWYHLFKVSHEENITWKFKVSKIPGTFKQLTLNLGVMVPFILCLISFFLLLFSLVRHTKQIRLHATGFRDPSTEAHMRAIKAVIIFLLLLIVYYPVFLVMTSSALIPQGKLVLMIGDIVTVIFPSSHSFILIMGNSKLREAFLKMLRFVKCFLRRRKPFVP
T8 sequence (Q9NYV9 whole entry): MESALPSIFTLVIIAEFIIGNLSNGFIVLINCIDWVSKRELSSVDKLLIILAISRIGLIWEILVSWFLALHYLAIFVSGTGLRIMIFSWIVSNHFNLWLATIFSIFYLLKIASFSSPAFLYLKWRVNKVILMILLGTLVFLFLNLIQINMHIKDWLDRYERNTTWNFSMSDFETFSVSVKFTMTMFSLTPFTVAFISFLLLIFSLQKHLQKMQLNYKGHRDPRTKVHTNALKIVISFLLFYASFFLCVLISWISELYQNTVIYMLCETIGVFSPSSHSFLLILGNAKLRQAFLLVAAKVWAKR
T7 sequence (Q9NYW0 whole entry): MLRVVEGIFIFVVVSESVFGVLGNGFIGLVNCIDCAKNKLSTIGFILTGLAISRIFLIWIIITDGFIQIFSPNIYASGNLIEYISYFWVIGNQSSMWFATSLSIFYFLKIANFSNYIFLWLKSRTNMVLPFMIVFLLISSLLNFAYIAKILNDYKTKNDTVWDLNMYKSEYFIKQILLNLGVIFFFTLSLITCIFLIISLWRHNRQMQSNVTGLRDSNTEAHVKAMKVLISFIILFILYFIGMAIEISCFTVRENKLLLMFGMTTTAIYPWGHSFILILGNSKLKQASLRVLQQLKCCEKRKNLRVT
T6 sequence (Q9NYW3 whole entry): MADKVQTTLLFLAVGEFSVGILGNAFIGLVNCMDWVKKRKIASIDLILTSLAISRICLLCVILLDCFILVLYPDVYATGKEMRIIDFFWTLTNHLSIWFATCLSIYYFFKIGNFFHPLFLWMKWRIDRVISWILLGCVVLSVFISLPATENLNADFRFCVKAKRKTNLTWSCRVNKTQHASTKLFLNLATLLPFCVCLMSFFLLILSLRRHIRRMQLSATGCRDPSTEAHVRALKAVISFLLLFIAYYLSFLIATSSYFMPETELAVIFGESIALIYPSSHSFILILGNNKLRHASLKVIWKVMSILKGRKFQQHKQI
T1 sequence (Q9NYW4 whole entry): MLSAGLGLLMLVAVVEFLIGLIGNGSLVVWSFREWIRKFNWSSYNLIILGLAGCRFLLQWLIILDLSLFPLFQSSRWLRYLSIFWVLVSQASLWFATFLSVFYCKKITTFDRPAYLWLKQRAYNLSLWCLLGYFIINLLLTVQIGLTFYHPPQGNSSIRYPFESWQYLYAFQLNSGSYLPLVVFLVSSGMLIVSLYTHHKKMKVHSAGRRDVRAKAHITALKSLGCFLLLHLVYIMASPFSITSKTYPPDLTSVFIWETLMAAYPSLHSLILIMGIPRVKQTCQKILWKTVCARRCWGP
T4 sequence (P59536 whole entry): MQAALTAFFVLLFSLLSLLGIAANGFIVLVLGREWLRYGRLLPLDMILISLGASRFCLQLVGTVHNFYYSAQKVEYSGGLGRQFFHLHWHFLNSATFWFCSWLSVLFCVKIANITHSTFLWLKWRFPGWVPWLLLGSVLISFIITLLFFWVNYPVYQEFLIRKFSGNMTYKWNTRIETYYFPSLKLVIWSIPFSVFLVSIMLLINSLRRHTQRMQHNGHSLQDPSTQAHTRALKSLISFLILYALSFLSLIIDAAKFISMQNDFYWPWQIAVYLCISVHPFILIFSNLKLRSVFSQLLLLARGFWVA

For `c1cnc2c(c1)ccc1cccnc12` [1,10-phenanthroline], the “activation of TAS2R5” value at TAS2R5 is recorded as “activated”.

In the case of `C/C=C(/C=O)[C@@H](CC=O)CC(=O)OCCc1ccc(O)cc1` [Oleocanthal, oleocanthal], the figures for the “activation of any TAS2R” value in the experiment on 25 human TAS2Rs and with 25 human TAS2Rs (listed as oleocanthal) were “did not activate any TAS2Rs” and “did not show any activation of bitter receptors; also recorded: failed to activate any TAS2Rs”, respectively. In the experiment with TRPA1 receptor/channels, the “activation of TRPA1 receptor/channels” value is recorded as “activates”. Turning to `O=C(N[C@H](CO)[C@H](O)c1ccc([N+](=O)[O-])cc1)C(Cl)Cl` [chloramphenicol, reference compound], the “activation of TAS2R1” value at TAS2R1 is listed as “activated”. For the same compound, at TAS2R8, the “activation of TAS2R8” value is reported as “activated”. At TAS2R41, the “activation of TAS2R41” value is reported as “activated”. As for `CCN(CC)CCCC(C)Nc1ccnc2cc(Cl)ccc12` (stereo not shown) [chloroquine], the “activation of TAS2R3” value on TAS2R3 is listed as “activated”. At TAS2R7, the “activation of TAS2R7” value is on record as “activated”.

For the compound `CC(=O)OC(C)(C)/C=C/C(=O)[C@](C)(O)[C@H]1[C@H](O)C[C@@]2(C)[C@@H]3CC=C4[C@@H](C=C(O)C(=O)C4(C)C)[C@]3(C)C(=O)C[C@]12C` [cucurbitacin E], the “activation of TAS2R10” value at TAS2R10 is “activated”. Take `CC[N+](C)(CC)CCOC(=O)C(O)(c1ccccc1)C1CCCCC1` (stereo not shown) [oxyphenonium]: at TAS2R13, the “activation of TAS2R13” value is given as “activated”.

On to `CCN(CC)CCNC(=O)c1ccc(N)cc1` [procainamide], for which, at TAS2R9, the “activation of TAS2R9” value is given as “activated”. For the compound `OCc1ccccc1O[C@@H]1O[C@H](CO)[C@@H](O)[C@H](O)[C@H]1O` [salicin], at TAS2R16, the “activation of TAS2R16” value was “activated”.
